In PubChem BioAssay AID493002 (Sanford-Burnham Center for Chemical Genomics, 2010):
Calls of active or inactive are those of the source. The rule behind the calls is not given here.

tested on: S. cerevisiae tim23-1 mutant growth, luminescence; assay: tim23-1 mutant yeast growth inhibitors, dose response, luminescence, uHTS hits (AID 493002);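 note: yeast grown roughly 22 hours at 25 °C before the luminescence read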

| SMILES | IC50 |
| --- | --- |
| CSc1nnc(C)c(/C=C/NOCc2ccc(Cl)cc2)n1 | 6.13 µM |
| COc1ccc(C(=O)Nc2nc3ccccc3s2)c(OC)c1 | 5.92 µM |
| CO/C(N)=C(\C#N)N=Cc1ccccc1Cl | 8.6 µM |
| Nc1ccc(O)c2c1C(=O)c1ccccc1C2=O | 11.3 µM |
| O=C1Nc2ccccc2/C1=C/c1ccccc1Cl | 7.21 µM |
| O=C1/C(=C/c2cccs2)Cc2ccccc21 | 16.1 µM |
| O=C(c1cccnc1)C1Cc2ccccc2C1=O (stereo not given) | 9.94 µM |
| CCCCn1c(N)c(N(CCC(C)C)C(=O)c2ccc3c(c2)OCO3)c(=O)[nH]c1=O | 11.1 µM |
| O=C(N/N=C/c1ccc(Br)s1)c1c[nH]c2ccccc12 | 14.9 µM |
| O=c1oc(Cl)c(Cl)c2ccccc12 | 3.83 µM |
| Nc1ccc(N=Nc2ccccc2O)c(N)c1 | 15.3 µM |
| O=C(Nc1ccccc1)C1C(c2ccccc2)C1(Cl)Cl (stereo not given) | 14.9 µM |
| CCN(CC)c1ccc2c(C)c(-c3ccc(N)cc3)c(=O)oc2c1 | 13.9 µM |
| Cc1ccc(SCC(=O)OCn2nnc3ccccc3c2=O)cc1C | 9.99 µM |
| Cc1cc(NC(=O)c2ccco2)sc1C | 18 µM |
| Cc1ccc(S(=O)(=O)N[C@@H](Cc2ccccc2)C(=O)CCl)cc1 | 2.18 µM |
| Oc1ccccc1-c1cc(-c2ccc(F)cc2)n[nH]1 | 13.5 µM |
| CCCCC(=O)NC(c1ccc(Cl)cc1)c1ccc2cccnc2c1O (stereo not given) | 9.68 µM |
| Cc1ccc(NC(=O)c2ccc(Cl)c(NC(=O)c3cccs3)c2)cc1 | 14.5 µM |
| Nc1ccc(/C=C/C(=O)c2cccs2)cc1 | 4.31 µM |
| CCOC(=O)c1ccc(NC(=O)CSc2nc(=O)n3cccc(C)c3n2)cc1 | 13 µM |
| Brc1ccc(-n2cnc(-c3ccccc3)c2)cc1 | 12.5 µM |
| Nc1ncnc2c1ncn2[C@@H]1O[C@H](CO)C[C@H]1O | 14 µM |
| CCCN(C(=O)c1ccc([N+](=O)[O-])c(C)c1)c1c(N)n(Cc2ccccc2)c(=O)[nH]c1=O | 5.69 µM |
| Cc1ccc(OCc2cc(C(=O)NC3CCCCC3)no2)cn1 | 15.4 µM |

| SMILES | IC50 |
| --- | --- |
| Cc1ccc(NC(=O)c2nc(S(=O)(=O)Cc3ccccc3C)ncc2Cl)cc1C | 3.72 µM |
| Cc1ccc(S(=O)(=O)n2ccc(OC(=O)c3cccs3)n2)cc1 | 8.39 µM |
| CC1(C)OC(=O)C(=Cc2ccc[nH]2)C(=O)O1 | 8.73 µM |
| COc1cccc(CNn2c(-c3cccc(C)c3)nc3ccccc3c2=O)c1O | 10.1 µM |
| CC1CCC(NC(=O)c2cc(C3CC3)nn2-c2ccccc2)CC1 (stereo not given) | 15.8 µM |
| CSC1=N/C(=C\c2ccc(C)cc2)C(=O)S1 | 10.3 µM |
| CCOC(=O)c1c(C=O)c2sc(C)cc2n1C | 18 µM |
| O=C(Nc1cccc(Br)c1)C1CCCC1 | 7.64 µM |
| O=C(Nc1cn(-c2ccccc2)nc1-c1cccs1)c1ccco1 | 29 µM |
| Cc1ccc2c(c1)C(=O)C(=O)N2c1ccc(Cl)cc1 | 11.7 µM |
| CCOC(=O)NNc1ccc2nonc2c1[N+](=O)[O-] | 6.6 µM |
| O=C(Nc1ccc(-c2cn3c(n2)SCC3)cc1)c1ccco1 | 8.88 µM |
| COc1cccc(Nc2nc(-c3ccccc3)nc3ccccc23)c1 | 5.63 µM |
| CC1(C)c2cc(Cl)ccc2-n2c1cc(O)c(-c1ccccc1)c2=O | 11.9 µM |
| COc1cc(/C=C/C(=O)OCC(=O)c2ccc(OC(F)F)cc2)ccc1O | 14.6 µM |
| Cc1ccc(-c2nnc(NC3CCCC3)s2)cc1 | 26.6 µM |
| Cc1nc(-c2ccc(NC(=O)c3ccccc3)cc2)cs1 | 13 µM |
| COc1ccccc1C(=O)Nc1nnc(-c2ccc3c(c2)CCCC3)o1 | 13.8 µM |
| Cn1c(-c2sc3ccccc3c2Cl)n[nH]c1=S | 7.61 µM |
| CC(/C=N/NC(=O)c1cccs1)=C\c1ccco1 | 24.3 µM |
| COc1cccc(/C=N/NC(=O)c2cc(C34CC5CC(CC(C5)C3)C4)[nH]n2)c1 | 10.9 µM |
| O=C1NN=C(c2ccc(Cl)cc2)CC1c1cccc(Br)c1 (stereo not given) | > 100 µM (inactive) |
| c1ccc(-c2cc3ccccc3cn2)cc1 | 8.34 µM |
| O=C(CSc1ccccc1)N/N=C/c1ccccc1O | 27.5 µM |
| O=C(N/N=C/c1ccco1)c1cc2ccccc2o1 | 8.47 µM |

| SMILES | IC50 |
| --- | --- |
| CCCc1nc2c(c(=O)c3ccccc3n2C)c(=O)n1C1CCCCCC1 | 9.44 µM |
| O=c1c(-c2ccc3c(c2)OCCO3)c(C(F)(F)F)oc2cc(O)cc(O)c12 | 12.6 µM |
| Cc1occc1C(=O)N/N=C/C(Br)=C\c1ccccc1 | 13.7 µM |
| COc1ccc2c(c1)sc1nc(-c3ccccc3)cn12 | 6.68 µM |
| O=Cc1cnc2ccccc2c1-c1ccccc1 | 6.97 µM |
| Clc1nssc1=Nc1nncs1 | 3.05 µM |
| COc1ccc(C(C[N+](=O)[O-])c2c(-c3ccccc3)cc3ccccn23)cc1OC (stereo not given) | 12.7 µM |
| Cc1nc2scc(C)n2c(=O)c1S(=O)(=O)Nc1ccc(OC(F)(F)F)cc1 | 6.96 µM |
| Cc1ccc2nc(NC(=O)Cn3nc(C)c([N+](=O)[O-])c3C)sc2c1 | 6.13 µM |
| C#CCOCCOCCOCCNc1nc(N2CCN(C(=O)CCCCCCCCCCNC(=O)[C@H](CCCCN)n3cc(C)nn3)CC2)nc(N2CCN(C(=O)CCCCCCCCCCNC(=O)[C@H](CCCN=C(N)N)n3cc(C[C@@H](C)CC)nn3)CC2)n1 | 10.4 µM |
| O=C(N/N=C/c1ccc(Br)s1)c1cccs1 | 9.05 µM |
| CC(C)(C)c1ccc(OCC(=O)NCc2ccco2)c(Br)c1 | 5.94 µM |
| O=C(Nc1ccc(F)c([N+](=O)[O-])c1)c1cccs1 | 15.3 µM |
| O=C(Nc1cccc(NC(=O)c2ccco2)c1)c1cccc(Br)c1 | 13.1 µM |
| Cc1ccc2occ(C(=O)c3ccco3)c(=O)c2c1 | 9.16 µM |
| CC1(S(=O)(=O)O)CC(=O)c2ccccc2C1=O (stereo not given) | 6.57 µM |
| O=C(CSc1nnnn1Cc1ccccc1)c1ccc(F)cc1 | 20 µM |
| O=C(N/N=C/c1cccs1)c1cc(-c2cccc3ccccc23)n[nH]1 | 28 µM |
| N#C/C(=C\c1ccc(O)cc1)c1nc2ccccc2o1 | 6.42 µM |
| CC(C)Cn1cnc2c(c(-c3ccccc3)c(-c3ccccc3)n2Cc2ccco2)c1=N | 9.48 µM |
| O=c1c2cc(Br)ccc2nc(-c2ccccc2)n1O | 19.1 µM |
| c1ccc(N=Nc2cn[nH]c2-c2ccco2)cc1 | 11.3 µM |
| Cc1ccc2oc(C(Cl)(Cl)Cl)cc(=O)c2c1 | 4.38 µM |
| CCOC(=O)/C(=C/c1ccc(OC(=O)c2ccncc2)cc1)C(C)=O | 11 µM |
| O=c1c2ccccc2nc(-c2ccc([N+](=O)[O-])cc2)n1O | 7.67 µM |

| SMILES | IC50 |
| --- | --- |
| O=c1oc(-c2ccc(Br)o2)nc2ccccc12 | 9.8 µM |
| CCOC(=O)c1sc(=NC(=O)c2ccco2)n(C)c1C | 14.1 µM |
| COc1ccc(-c2cccc(NC(=O)c3cccs3)c2)nn1 | 14.2 µM |
| O=C(Nc1ccc2nc(-c3ccccc3)[nH]c2c1)c1cccs1 | 3.62 µM |
| CC(C)N=c1scc(-c2ccco2)n1/N=C/c1ccc(O)c(O)c1 | 11.9 µM |
| CCCCCOC(=O)Cc1c(C)nc(-c2ccccc2)[nH]c1=O | 13.2 µM |
| Oc1c(Cl)cc(Cl)cc1CNc1nccs1 | 15.3 µM |
| CCNc1nc(N)c(C(=O)C23CC4CC(CC(C4)C2)C3)s1 | 12.4 µM |
| CC(C(Sc1ccccc1N)c1ccccc1)[N+](=O)[O-] (stereo not given) | 3.92 µM |
| COc1ccc2c(c1)-c1nc(NC(=O)c3cccs3)sc1CC2 | 21.7 µM |
| O=C(CCl)Nc1cccc(-c2cnc3ccccc3n2)c1 | 9.25 µM |
| CCC(C)c1ccc(NC(=O)COC(=O)C2CCCC2)cc1 (stereo not given) | 10.7 µM |
| CC(C)(C)C(=O)c1sc(Nc2ccccc2)nc1N | 12 µM |
| COc1cc(/C=N/NC(=O)c2ccc(N)cc2)ccc1OC(=O)c1cccc(C)c1 | 9.83 µM |
| Cc1nc2ccc(C(C(F)(F)F)(C(F)(F)F)C(F)(F)F)cc2[nH]1 | 5.02 µM |
| O=S(=O)(Nc1cccc(-c2nc3cccnc3s2)c1)c1ccc2c(c1)OCCO2 | 11.6 µM |
| O=C(Nc1nc(-c2cccs2)c(-c2ccccc2)s1)c1ccco1 | 11.5 µM |
| O=C(N/N=C/c1coc2ccc(Cl)cc2c1=O)c1ccncc1 | 22.3 µM |
| Cc1ccc2nc(N3CCN(C=O)CC3)nc(-c3ccccc3)c2c1 | 11.9 µM |
| COc1ccc(OCC(=O)Nc2ccc3c(c2)CCC3)cc1 | 15.6 µM |
| O=C(CSc1cccs1)Nc1ccc2ccccc2c1 | 12.2 µM |
| COc1ccc(Nc2nc(N)c([N+](=O)[O-])c(NC3CCCCC3)n2)cc1 | 13.6 µM |
| O=C(Oc1cccc2c(O)cccc12)c1ccccc1 | 8.69 µM |
| Nc1ccc2nc(SCc3cccc(F)c3)sc2c1 | 13.9 µM |
| CC1CCCCN1C(=O)Nc1cccc(Cl)c1 (stereo not given) | 14.1 µM |

| SMILES | IC50 |
| --- | --- |
| Oc1ccc(-c2csc(Nc3ccccn3)n2)c(O)c1 | 24.9 µM |
| Cc1csc2nc(O)c(C(=O)NCCC3=CCCCC3)c(=O)n12 | 4.88 µM |
| Cc1ccc(Nc2nc(Cl)nc(NC(C)(C)C)n2)cc1 | 16 µM |
| Cc1ccc(-c2nn(-c3ccccc3)cc2NC(=O)CCl)cc1 | 4.31 µM |
| COc1ccc(CCCC(=O)N/N=C/c2ccc(C)cc2)cc1 | 16.7 µM |
| O=C(Nc1ccc2oc(-c3ccccc3)nc2c1)c1cccnc1 | 5.53 µM |
| COc1ccc(C(=O)N2CCc3ccc(NC(=O)c4ccccn4)cc3C2)cc1F | 23.8 µM |
| O=C(Nc1nc2c(F)cccc2s1)c1ccco1 | 16.7 µM |
| Oc1ccc(Oc2ccc(Oc3ccc(O)cc3)cc2)cc1 | 6.42 µM |
| CCCn1nnc(NC(=O)c2sc3ccccc3c2Cl)n1 | 20.7 µM |
| Cc1occc1C(=O)N/N=C/C(Br)=C/c1ccccc1 | 9.06 µM |
| C=CCNC(=O)c1ccc2c3n(nc2c1)-c1ccc(Cl)cc1CO3 | 6.9 µM |
| Cc1cccn2c(=O)c(C(=O)NC3CCCCC3)c(O)nc12 | 15.6 µM |
| CCCCCCSC1=C(C#N)C(c2ccccc2)CC(=O)N1 (stereo not given) | 13.4 µM |
| O=C(CC(=O)c1c(F)cccc1Cl)c1ccccc1O | 15.7 µM |
| Cc1cccc(CN2C(=O)/C(=C\c3ccc(C(=O)NCCCN4CCN(C)CC4)cc3)Oc3ccccc32)c1 | 17.5 µM |
| COc1ccccc1-c1cc(C(=O)N/N=C/c2ccc(C)s2)c2ccccc2n1 | 18.8 µM |
| Brc1ccc(OCc2nnnn2-c2ccccc2)cc1 | 11.3 µM |
| N#C/C(=C\c1ccc(OCc2ccccc2)cc1)C(N)=O | 11.7 µM |
| CCc1ccc(NC(=O)/C(C#N)=C/c2ccncc2)cc1 | 4.41 µM |
| Cc1ccc(C(=O)NC(=S)NCc2ccccc2)cc1 | 12.1 µM |
| Cc1ccn2cc(C(=O)Nc3ccc4c(c3)OCCO4)nc2c1 | 7.9 µM |
| O=C(Nc1ccc2c(c1)OCCO2)c1cccc(Cl)c1 | 11.6 µM |
| Cc1ccc(CS(=O)(=O)c2ncc(Cl)c(C(=O)Nc3ccc(OC(F)F)cc3)n2)cc1 | 1.86 µM |
| Cc1csc2nc(O)c(C(=O)NC3CCCCC3)c(=O)n12 | 8.51 µM |
